{
  "source": "paper PMC10333392",
  "about": "(Molecular Imaging and Biology, 2023)",
  "key": {"[1]": {"biological_target": "AMPA receptor", "assay": "[^3H]AMPA competition binding, rat forebrain membranes", "settings": "radioligand [^3H]-AMPA"}, "[2]": {"biological_target": "T1, Dopaminergic receptor (D2) (Rattus norvegicus, UniProt P61169)", "T1 construct": "from tissue; host or cells: Wistar rat brain synaptic membranes (striatum according to the earlier reading)", "T1 sequence (P61169 whole entry)": "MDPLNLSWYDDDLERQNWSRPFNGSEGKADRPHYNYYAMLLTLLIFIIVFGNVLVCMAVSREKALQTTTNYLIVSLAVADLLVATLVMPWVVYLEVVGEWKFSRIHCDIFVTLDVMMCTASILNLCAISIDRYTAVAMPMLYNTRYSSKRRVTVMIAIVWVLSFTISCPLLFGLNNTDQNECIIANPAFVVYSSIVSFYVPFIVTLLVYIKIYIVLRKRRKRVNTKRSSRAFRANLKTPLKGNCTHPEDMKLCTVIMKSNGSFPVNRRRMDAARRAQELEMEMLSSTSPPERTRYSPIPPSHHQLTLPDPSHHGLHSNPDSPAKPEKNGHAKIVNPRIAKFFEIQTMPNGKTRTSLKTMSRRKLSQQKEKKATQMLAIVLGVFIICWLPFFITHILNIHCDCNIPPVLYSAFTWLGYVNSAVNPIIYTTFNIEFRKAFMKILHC", "assay": "[^3H]raclopride competition binding, rat striatum membranes", "settings": "radioligand [^3H]-raclopride"}, "[3]": {"biological_target": "T2, NMDA receptor glycine site (Rattus norvegicus, UniProt P35439)", "T2 construct": "from tissue; host or cells: Wistar rat forebrain synaptic membranes", "assay": "[^3H]glycine competition binding, rat forebrain membranes", "settings": "radioligand [^3H]-glycine"}, "[4]": {"biological_target": "Kaïnate receptor", "type": "binding, rat"}, "[5]": {"biological_target": "T3, NMDA PCP site (Rattus norvegicus, UniProt P35439)", "T3 construct": "from tissue; host or cells: Wistar rat hippocampus, frontal cortex or forebrain synaptic membranes", "assay": "[^3H]TCP radioligand competition binding on rat brain membranes", "settings": "for IC50: inhibition of [^3H]TCP binding"}, "[6]": {"biological_target": "T4, Dopaminergic receptor (D1) (Rattus norvegicus, UniProt P18901)", "T4 construct": "from tissue; host or cells: Wistar rat brain synaptic membranes (striatum according to the earlier reading)", "T4 sequence (P18901 whole entry)": "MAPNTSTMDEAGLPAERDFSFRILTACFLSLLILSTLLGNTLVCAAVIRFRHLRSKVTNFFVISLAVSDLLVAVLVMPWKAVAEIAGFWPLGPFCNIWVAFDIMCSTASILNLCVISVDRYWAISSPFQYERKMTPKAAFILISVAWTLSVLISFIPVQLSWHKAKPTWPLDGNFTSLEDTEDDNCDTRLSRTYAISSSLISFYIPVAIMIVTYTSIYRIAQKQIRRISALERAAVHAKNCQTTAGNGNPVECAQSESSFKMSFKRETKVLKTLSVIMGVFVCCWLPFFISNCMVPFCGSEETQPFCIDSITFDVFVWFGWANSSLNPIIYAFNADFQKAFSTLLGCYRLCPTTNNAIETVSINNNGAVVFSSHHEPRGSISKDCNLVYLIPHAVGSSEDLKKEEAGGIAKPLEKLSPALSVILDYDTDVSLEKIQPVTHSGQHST", "assay": "[^3H]SCH23390 competition binding, rat striatum membranes", "settings": "radioligand [^3H]-SCH23390"}, "[7]": {"settings": "read-out: IC50 ± SEM ([^19F]FNM inhibition)"}},
  "note": "“Also recorded” adds a separate entry of the source.",
  "data": [
    {"substance": "Fluoroethylnormemantine [[^19F]FNM]", "values": [
      {"measurement": "IC50 ± SEM ([^19F]FNM inhibition)", "setting": "[1]", "result": "did not displace; also recorded: No inhibition"},
      {"measurement": "IC50 ± SEM ([^19F]FNM inhibition)", "setting": "[2]", "result": "did not displace"},
      {"measurement": "IC50", "setting": "[2]; [7]", "result": "> 1000", "unit": "µM"},
      {"measurement": "IC50 ± SEM ([^19F]FNM inhibition)", "setting": "[3]", "result": "did not displace; also recorded: No inhibition"},
      {"measurement": "IC50 ± SEM ([^19F]FNM inhibition)", "setting": "[4]", "result": "did not displace; also recorded: No inhibition"},
      {"measurement": "selectivity for the NMDA receptor ion-channel compared to the other targets examined", "setting": "[5]; in the forebrain", "result": "at least sevenfold"},
      {"measurement": "IC50", "setting": "[5]; rat forebrain", "result": "13 ± 8.9", "unit": "µM"},
      {"measurement": "IC50", "setting": "[5]; rat frontal cortex", "result": "80.8 ± 15.1", "unit": "µM"},
      {"measurement": "IC50", "setting": "[5]; rat hippocampus", "result": "52.9 ± 9.7", "unit": "µM"},
      {"measurement": "IC50 ± SEM ([^19F]FNM inhibition)", "setting": "[6]", "result": "did not displace"},
      {"measurement": "IC50", "setting": "[6]; [7]", "result": "> 1000", "unit": "µM"}
    ]}
  ]
}
